Assays:
Type in all cases: cell-based, human
A2780S and A2780CP cells = experiment: Apoptotic nuclei after cisplatin in cells transfected with BAD phosphorylation-site mutants; conditions: 1 μM (A2780S) or 10 μM (A2780CP) cisplatin, 48 hours
Protocol: (§1) In FIGS. 14A and 14B, OVCA cell lines A2780S and A2780CP, respectively, were transfected with Flag vectors expressing wild-type BAD (WT) or BAD harboring serine (S) to alanine point mutations in serine-112, -136, or -155 (S112A, S136A, S155A). These S to A phosphorylation site mutations prevent phosphorylation of the BAD protein. Transfected cells were treated with vehicle or 1 μM (A2780S) or 10 μM (A2780CP) cisplatin for 48 hours and evaluated for the presence of apoptotic nuclei. FIG. 14C is a Western blot showing depletion of PP2C and PKA by siRNA. Controls included a non-targeting siRNA (NT). GAPDH was used as a loading control. […] Error bars indicate standard error of the mean.
(§2) RNA duplexes for PP2C/PPM1A (s10909 from ABI), cAMP-dependent protein kinase (PKA; 6406 from Cell Signaling), and vectors containing mutated BAD (pFlag-600, a kind gift from Dr. Hong Gang Wang, MCC) were transfected using the Nucleofector transfection kit, with non-targeting Silencer negative control #2 siRNA (ABI), according to manufacturer's protocols (Amaxa).
(§3) Morphologic assessment of condensed chromatin and fragmented DNA quantified percent apoptotic nuclei. Cells were fixed in 4% paraformaldehyde, and nuclei were stained with bis-benzimide trihydrochloride (0.5 μg/ml; Molecular Probes) and quantified using fluorescence microscopyl^5.

[1] = test system: OVCA cell lines (A2780S, A2780CP, A2008, C13); experiment: Cisplatin-resistance by CellTiter-96 MTS proliferation assay in serially cisplatin-treated OVCA cell lines; conditions: after in vitro cisplatin-treatment/expansion cycles versus cells prior to serial cisplatin treatment
Protocol: Acquisition and culture conditions for the expansion of OVCA cells lines (T8, OVCAR5, OV2008, IGROV1, C13, A2780S, A2780CP, and A2008) were reported previouslyl^10. Cells were subjected to sequential treatment with increasing doses of cis-diammine-dichloroplatinum (cisplatin), using three dosing schedules resulting in […] treatment/expansion cycles. Treatment schedules A, B, and C included three treatments with 1, 2, and 3 μg/mL cisplatin, respectively, followed by three treatments with 3, 4, and 5 μg/mL, respectively. Each cisplatin treatment was followed by a cell recovery/expansion phase. Both cisplatin-resistance and genome-wide expression changes were measured serially in each cell line at baseline and after 3 and 6 cisplatin-treatment/expansion cycles. Cisplatin-resistance was quantified using CellTiter-96 MTS proliferation assays (Fisher Scientific) and analyzed genome-wide expression using Affymetrix Human U133 Plus 2.0 GeneChips as previously described^10,11 (Gene Expression Omnibus (GEO) accession number GSE23553).
Many of the BAD-pathway genes found to be associated with evolution of in vitro cisplatin-resistance are known to influence BAD phosphorylation (FIG. 12). The inventors therefore tested the hypothesis that BAD-phosphorylation status is associated with OVCA cisplatin-resistance. […]

A2780S cells = experiment: Apoptotic nuclei after cisplatin following siRNA depletion of PKA or PP2C/PPM1A; conditions: 1 μM cisplatin
Protocol: as §1, §2, §3

## N.N.[Cl][Pt][Cl] [cisplatin, cis-diammine-dichloroplatinum]
A2780S and A2780CP cells; cells transfected with BAD[112A]
  cisplatin sensitivity (apoptotic nuclei): no effect
A2780S and A2780CP cells; cells transfected with BAD[S136A], BAD[S155A] versus wild-type BAD
  cisplatin-induced apoptosis (apoptotic nuclei): increased
[1]
  cisplatin EC50: higher
A2780S cells; siRNA depletion of PKA versus non-targeting control siRNA
  cisplatin-induced apoptosis (percent apoptotic nuclei): increased
A2780S cells; siRNA depletion of PP2C/PPM1A
  cisplatin-induced apoptosis (percent apoptotic nuclei): decreased

From patent US20130011393A1, “BAD PATHWAY GENE SIGNATURE” (priority 2010, published 2013)
